ChEMBL document CHEMBL1148062, “Cylindol A, a novel biphenyl ether with 5-lipoxygenase inhibitory activity, and a related compound from Imperata Cylindrica” (J Nat Prod, 1994)

Key:
[1] = biological target: T1, Polyunsaturated fatty acid 5-lipoxygenase (Rattus norvegicus) (UniProt P12527); details: RBL-1, 15 uM
T1 sequence (whole entry): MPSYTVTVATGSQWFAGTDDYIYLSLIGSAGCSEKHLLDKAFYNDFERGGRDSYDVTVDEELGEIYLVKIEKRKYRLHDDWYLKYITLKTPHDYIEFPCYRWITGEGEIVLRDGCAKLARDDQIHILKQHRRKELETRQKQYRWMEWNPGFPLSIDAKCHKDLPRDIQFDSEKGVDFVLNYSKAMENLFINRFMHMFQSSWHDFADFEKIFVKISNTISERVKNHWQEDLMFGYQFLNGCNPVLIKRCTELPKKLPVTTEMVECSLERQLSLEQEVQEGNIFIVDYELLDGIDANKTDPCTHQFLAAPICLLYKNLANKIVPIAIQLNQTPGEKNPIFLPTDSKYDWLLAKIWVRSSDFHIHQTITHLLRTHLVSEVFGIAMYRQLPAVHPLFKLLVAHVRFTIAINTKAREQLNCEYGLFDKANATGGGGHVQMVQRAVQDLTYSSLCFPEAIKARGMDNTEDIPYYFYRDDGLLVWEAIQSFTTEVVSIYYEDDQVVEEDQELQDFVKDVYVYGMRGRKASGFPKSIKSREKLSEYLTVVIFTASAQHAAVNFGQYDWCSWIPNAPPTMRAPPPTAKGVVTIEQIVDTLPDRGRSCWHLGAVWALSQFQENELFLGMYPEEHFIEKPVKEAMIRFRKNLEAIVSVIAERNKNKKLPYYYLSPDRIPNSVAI
Description: Inhibition of rat 5-lipoxygenase in rat RBL1 cells at 15 uM

[2] = biological target: T1, Polyunsaturated fatty acid 5-lipoxygenase (Rattus norvegicus); experiment: Inhibition of rat 5-lipoxygenase in rat RBL1 cells at 30 uM; type: cell-based; details: RBL-1

Compound	inhibition [1] [%]	inhibition [2] [%]
O=C1CCN(c2ccccc2)N1	50	–
COC(=O)c1ccc(O)c(Oc2cc(C(=O)OC)ccc2O)c1	–	64
